Results reported in US4820716A, “7-(1-Pyrrolidinyl)-quinolonecarboxylic acid derivatives” (Bayer Aktiengesellschaft, priority 1986, dated 1989).
≈ marks a conversion by molar mass, not a printed value. Like-named read-outs stand apart in the source and are kept apart here.

Tests used:
Test in all cases: MIC, agar dilution test (multipoint inoculator)
Type in all cases: cell-based
E. coli = settings: Escherichia coli, Isosensitest medium pH 7.2
Source text: (§1) *Agar dilution test (multipoint inoculator) Isosensitest medium pH 7.2

Klebsiella pneum. = tested on: Klebsiella pneum.
Source text: as §1

Proteus mir. = settings: Isosensitest medium pH 7.2
Source text: as §1

Proteus morg. = settings: Isosensitest medium pH 7.2
Source text: as §1

Proteus vulg. = tested on: Proteus vulg.
Source text: as §1

Providencia stuartei = tested on: Providencia stuartei
Source text: as §1

Psdm. aeruginosa = settings: Pseudomonas aeruginosa, Isosensitest medium pH 7.2
Source text: as §1

Serratia marc. = settings: strain 16040, Isosensitest medium pH 7.2
Source text: as §1

Staph. aureus = settings: Staphylococcus aureus, Isosensitest medium pH 7.2
Source text: as §1

Strepto. faecalis = settings: Isosensitest medium pH 7.2
Source text: as §1

[1] = pH 7.2, strain 455/7, read-out: MIC
[2] = pH 7.2, strain Neumann, read-out: MIC
[3] = pH 7.2, strain 57USA, Isosensitest medium pH 7.2, read-out: MIC
[4] = pH 7.2, strain 63, Isosensitest medium pH 7.2, read-out: MIC
[5] = pH 7.2, strain 6179, Isosensitest medium pH 7.2, read-out: MIC
[6] = pH 7.2, strain 6318, Isosensitest medium pH 7.2, read-out: MIC
[7] = pH 7.2, strain 8085, Isosensitest medium pH 7.2, read-out: MIC
[8] = pH 7.2, strain 8175, read-out: MIC
[9] = pH 7.2, strain 8223, read-out: MIC
[10] = strain 1017, Isosensitest medium pH 7.2, read-out: MIC
[11] = pH 7.2, strain 12012, Isosensitest medium pH 7.2
[12] = pH 7.2, strain 12052, Isosensitest medium pH 7.2

SMILES	MIC (E. coli; [1])	MIC (E. coli; pH 7.2, strain 4418)	MIC (E. coli; pH 7.2, strain A261)	MIC (E. coli; [2])	MIC (E. coli; pH 7.2, strain T7)	MIC (Klebsiella pneum.; [3])	MIC (Klebsiella pneum.; [4])	MIC (Klebsiella pneum.; [5])	MIC (Klebsiella pneum.; [6])	MIC (Klebsiella pneum.; [7])	MIC (Providencia stuartei; [11])	MIC (Providencia stuartei; [12])	MIC (Psdm. aeruginosa; pH 7.2, strain Ellsworth)	MIC (Psdm. aeruginosa; pH 7.2, strain Walter)	MIC (Serratia marc.)	MIC (Staph. aureus; pH 7.2, strain 133)	MIC (Staph. aureus; pH 7.2, strain 1756)	MIC (Staph. aureus; pH 7.2, strain FK422)	MIC (Strepto. faecalis; pH 7.2, strain 9790)	MIC (Strepto. faecalis; pH 7.2, strain 27101)	further results
O=C(O)c1cn(C2CC2)c2cc(N3CCC(O)C3)c(F)cc2c1=O (racemic) [Example 1, 1-cyclopropyl-6-fluoro-1,4-dihydro-7-(3-hydroxy-1-pyrrolidinyl)-4-oxo-3-quinolinecarboxylic acid]	32 µg/mL (≈ 96.3 µM)	< 0.015 µg/mL	< 0.015 µg/mL	≤ 0.015 µg/mL	< 0.015 µg/mL	0.125 µg/mL (≈ 0.376 µM)	< 0.015 µg/mL	0.125 µg/mL (≈ 0.376 µM)	0.06 µg/mL (≈ 0.181 µM)	≤ 0.015 µg/mL	≤ 0.015 µg/mL	32 µg/mL (≈ 96.3 µM)	0.125 µg/mL (≈ 0.376 µM)	1 µg/mL (≈ 3.01 µM)	32 µg/mL (≈ 96.3 µM)	≤ 0.015 µg/mL	≤ 0.015 µg/mL	≤ 0.015 µg/mL	0.125 µg/mL (≈ 0.376 µM)	0.125 µg/mL (≈ 0.376 µM)	MIC (Proteus mir.; [8]): 0.06 µg/mL (≈ 0.181 µM); MIC (Proteus mir.; [9]): 2 µg/mL (≈ 6.02 µM); MIC (Proteus morg.; strain 932, read-out: MIC): ≤ 0.015 µg/mL; MIC (Proteus morg.; strain 11006): ≤ 0.015 µg/mL; MIC (Proteus vulg.; [10]): ≤ 0.015 µg/mL
O=C(O)c1cn(C2CC2)c2cc(N3CCNCC3)c(F)cc2c1=O [Ciprofloxacin, 1-cyclopropyl-6-fluoro-1,4-dihydro-4-oxo-7-(1-piperazinyl)-3-quinolinecarboxylic acid, reference compound]	1 µg/mL (≈ 3.02 µM)	–	–	≤ 0.015 µg/mL	–	–	–	–	–	–	≤ 0.015 µg/mL	16 µg/mL (≈ 48.3 µM)	0.06 µg/mL (≈ 0.181 µM)	0.5 µg/mL (≈ 1.51 µM)	8 µg/mL (≈ 24.1 µM)	0.25 µg/mL (≈ 0.754 µM)	0.25 µg/mL (≈ 0.754 µM)	0.5 µg/mL (≈ 1.51 µM)	0.5 µg/mL (≈ 1.51 µM)	0.25 µg/mL (≈ 0.754 µM)	MIC (E. coli; pH 7.2, strain 4418, read-out: MIC): ≤ 0.015 µg/mL; MIC (E. coli; pH 7.2, strain A261, read-out: MIC): ≤ 0.015 µg/mL; MIC (E. coli; pH 7.2, strain T7, read-out: MIC): ≤ 0.015 µg/mL; MIC (Klebsiella pneum.; pH 7.2, strain 57USA, Isosensitest medium pH 7.2): ≤ 0.015 µg/mL; MIC (Klebsiella pneum.; pH 7.2, strain 63, Isosensitest medium pH 7.2): 0.03 µg/mL (≈ 0.0905 µM); MIC (Klebsiella pneum.; pH 7.2, strain 6318, Isosensitest medium pH 7.2): 0.06 µg/mL (≈ 0.181 µM); MIC (Klebsiella pneum.; pH 7.2, strain 8085, Isosensitest medium pH 7.2): ≤ 0.015 µg/mL; MIC (Proteus mir.; pH 7.2, strain 8175): 0.06 µg/mL (≈ 0.181 µM); MIC (Proteus mir.; pH 7.2, strain 8223): 4 µg/mL (≈ 12.1 µM); MIC (Proteus morg.; pH 7.2, strain 932): < 0.015 µg/mL; MIC (Proteus morg.; pH 7.2, strain 11006): ≤ 0.015 µg/mL; MIC (Proteus vulg.; pH 7.2): ≤ 0.015 µg/mL
O=C(O)c1cn(C2CC2)c2c(Cl)c(N3CCC(O)C3)c(F)cc2c1=O (centres unmarked) [Example 3, 8-chloro-1-cyclopropyl-7-fluoro-1,4-dihydro-7-(3-hydroxy-1-pyrrolidinyl)-4-oxo-3-quinolinecarboxylic acid]	0.25 µg/mL (≈ 0.682 µM)	≤ 0.015 µg/mL	≤ 0.015 µg/mL	≤ 0.015 µg/mL	≤ 0.015 µg/mL	≤ 0.015 µg/mL	≤ 0.015 µg/mL	< 0.015 µg/mL	≤ 0.015 µg/mL	≤ 0.015 µg/mL	≤ 0.015 µg/mL	1 µg/mL (≈ 2.73 µM)	≤ 0.015 µg/mL	0.25 µg/mL (≈ 0.682 µM)	1 µg/mL (≈ 2.73 µM)	≤ 0.015 µg/mL	≤ 0.015 µg/mL	≤ 0.015 µg/mL	≤ 0.015 µg/mL	≤ 0.015 µg/mL	MIC (Proteus mir.; [8]): ≤ 0.015 µg/mL; MIC (Proteus mir.; [9]): 0.06 µg/mL (≈ 0.164 µM); MIC (Proteus morg.; strain 932, read-out: MIC): ≤ 0.015 µg/mL; MIC (Proteus morg.; strain 11006): ≤ 0.015 µg/mL; MIC (Proteus vulg.; [10]): ≤ 0.015 µg/mL
